In patent US9617225B2 (VIROSTATICS SRL, priority 2012, dated 2017):
Read-outs that look alike come from different tables or passages of the source.

Tests used:
[1] = target: human CDK9/CyclinT kinase complex (Homo sapiens (Human), UniProt P50750); test: In Vitro CDK9/CyclinT Assay (IMAP fluorescent polarization); type: biochemical
Protocol: In Vitro CDK9/CyclinT Assay
The activity of the compounds described in the present invention can be determined by measuring the phosphorylation of a fluorescently-labeled peptide by human CDK9/CyclinT kinase complex by fluorescent polarization using a commercially available IMAP Screening Express Assay Kit (Molecular devices).
Test compounds were diluted in 100% DMSO to 5 mM stock concentration, then further dilutions were made in H2O or 100% DMSO to desirable concentrations. Each reaction consisted of 5 nM enzyme: CDK9/CyclinT (Proqinase cat#0371-0345-1), 400 nM TAMRA-Rbtide (synthetic 15-mer peptide derived from human retinoblastoma tumor suppressor protein labeled with TAMRA dye, Genecust Europe), 12 μM ATP (=Kmapp, Sigma-Aldrich) and kinase buffer: 20 mM MOPS pH 7 (Sigma-Aldrich), 1 mM DTT (Sigma-Aldrich), 10 mM MgCl2 (Sigma-Aldrich), 0.01% Tween 20 (Sigma-Aldrich).
For each reaction, 4 or 6 μl containing TAMRA-Rbtide, ATP and kianse buffer were combined with 2 μl diluted compound in H2O or 0.028 μl compound in 100% DMSO. The kinase reaction was started by the addition of 2 μl diluted enzyme. The reaction was allowed to run for 1 hour at room temperature. The reaction was stopped by adding 15 μl IMAP beads (1:400 beads in progressive (100% buffer A) 1× buffer).

[2] = system: Primary T cells; test: Cytotoxicity, viability by flow cytometry; type: cell-based
Protocol: Primary T cells are cultured and treated with different concentrations of the test compound. Viability is analysed by measuring through flow cytometry based techniques the percentage of viable cells, compared to untreated control=100%).

[3] = Table 4, toxic dose 50%, viable cells

Sequence of human CDK9/CyclinT kinase complex (P50750 whole entry): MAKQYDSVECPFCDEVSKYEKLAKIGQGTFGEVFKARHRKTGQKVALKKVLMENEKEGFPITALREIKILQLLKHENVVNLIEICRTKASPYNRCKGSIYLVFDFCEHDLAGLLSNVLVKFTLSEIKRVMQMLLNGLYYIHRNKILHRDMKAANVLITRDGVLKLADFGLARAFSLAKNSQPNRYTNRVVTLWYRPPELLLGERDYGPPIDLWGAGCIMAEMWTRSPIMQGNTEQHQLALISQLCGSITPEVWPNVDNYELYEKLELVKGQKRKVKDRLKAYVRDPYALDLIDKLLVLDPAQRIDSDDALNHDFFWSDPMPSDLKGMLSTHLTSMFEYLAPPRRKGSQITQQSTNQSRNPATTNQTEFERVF
Sequence of human CDK9/CyclinT kinase complex (O60563 whole entry partner): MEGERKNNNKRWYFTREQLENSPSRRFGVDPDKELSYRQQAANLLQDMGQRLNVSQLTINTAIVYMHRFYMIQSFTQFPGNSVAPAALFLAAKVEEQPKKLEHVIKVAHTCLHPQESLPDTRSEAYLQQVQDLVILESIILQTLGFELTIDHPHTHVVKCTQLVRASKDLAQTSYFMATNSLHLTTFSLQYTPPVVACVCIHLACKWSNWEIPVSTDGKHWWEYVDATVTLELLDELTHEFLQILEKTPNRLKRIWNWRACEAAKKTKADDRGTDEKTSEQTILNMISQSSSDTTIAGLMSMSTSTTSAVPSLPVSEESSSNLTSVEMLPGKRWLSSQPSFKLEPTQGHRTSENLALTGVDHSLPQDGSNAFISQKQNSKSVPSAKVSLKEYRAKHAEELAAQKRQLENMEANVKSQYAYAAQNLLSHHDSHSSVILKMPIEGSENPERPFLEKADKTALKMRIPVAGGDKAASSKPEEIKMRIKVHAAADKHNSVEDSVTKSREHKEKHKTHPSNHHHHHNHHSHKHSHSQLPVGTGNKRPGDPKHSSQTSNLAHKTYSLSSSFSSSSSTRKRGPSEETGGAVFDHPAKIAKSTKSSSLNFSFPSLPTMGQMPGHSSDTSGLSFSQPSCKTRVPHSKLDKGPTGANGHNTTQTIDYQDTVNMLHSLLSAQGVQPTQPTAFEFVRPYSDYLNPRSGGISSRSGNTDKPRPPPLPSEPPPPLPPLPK

IC50 ([1]; Table 1) | IC50 ([1]; Table 5) | SMILES | IC50 [1] | TD50 [2] | TD50 [2, 3]
 |  | COc1ccc(Nc2cc(-c3ccccc3OC)ncn2)cc1CNc1ccccc1 [Example 34, N-(4-Methoxy-3-((phenylamino)methyl)phenyl)-6-(2-methoxyphenyl)pyrimidin-4-amine] | < 10 µM | >5 µM | 
 |  | CCOc1ccc(Nc2cc(-c3ccccc3OC)ncn2)cc1N [Example 101, 4-Ethoxy-N^1-[6-(2-methoxy-phenyl)-pyrimidin-4-yl]-benzene-1,3-diamine] | < 1 µM | 12 µM | 
< 1 µM | < 1 µM | COc1ccccc1-c1cc(Nc2ccc(C(N)=O)c(Cl)c2)ncn1 [Example 132, 2-Chloro-4-[6-(2-methoxy-phenyl)-pyrimidin-4-ylamino]-benzamide] |  | >10 µM | 
 |  | COc1ccccc1-c1cc(Nc2ccc(Cl)c(C(=O)N3CCCC3)c2)ncn1 [Example 15, (2-Chloro-5-(6-(2-methoxyphenyl)pyrimidin-4-ylamino)phenyl)(pyrrolidin-1-yl)methanone] | < 1 µM | >0.5 µM | 
 |  | COc1ccc(Nc2cc(-c3ccc(F)cc3OC)ncn2)cc1NC(C)=O [Example 117, N-{5-[6-(4-Fluoro-2-methoxy-phenyl)-pyrimidin-4-ylamino]-2-methoxy-phenyl}-acetamide] | < 1 µM |  | >2 µM
 |  | CCOC(=O)c1cc(Nc2cc(-c3ccccc3OC)ncn2)ccc1Cl [Example 14, Ethyl 2-chloro-5-(6-(2-methoxyphenyl)pyrimidin-4-ylamino)benzoate] | < 1 µM | >0.5 µM | 
 |  | COc1ccccc1-c1cc(Nc2cc(N)c(OC)c(F)c2)ncn1 [Example 88, 5-Fluoro-4-methoxy-N^1-[6-(2-methoxy-phenyl)-pyrimidin-4-yl]-benzene-1,3-diamine] | < 1 µM | >20 µM | 
 |  | COc1cc(F)ccc1-c1cc(Nc2cc(N)c(OC)c(F)c2)ncn1 [Example 90, 5-Fluoro-N^1-[6-(4-fluoro-2-methoxy-phenyl)-pyrimidin-4-yl]-4-methoxy-benzene-1,3-diamine] | < 1 µM | >20 µM | 
< 1 µM |  | CCOC(=O)c1cc(Nc2cc(-c3ccccc3OC)ncn2)ccc1N1CCOCC1 [Example 18, Ethyl 5-(6-(2-methoxyphenyl)pyrimidin-4-ylamino)-2-morpholinobenzoate] |  | >0.5 µM | 
< 0.1 µM |  | COC(=O)c1cc(Nc2cc(-c3ccccc3OC)ncn2)ccc1OC [Example 30, Methyl 2-methoxy-5-(6-(2-methoxyphenyl)pyrimidin-4-ylamino)benzoate] |  | >0.5 µM | 
< 0.1 µM |  | COc1ccccc1-c1cc(Nc2ccc(N3CCN(C)CC3)c(Cn3cnc4ccccc43)c2)ncn1 [Example 2, N-(3-((1H-Benzo[d]imidazol-1-yl)methyl)-4-(4-methylpiperazin-1-yl)phenyl)-6-(2-methoxyphenyl)pyrimidin-4-amine] |  | 0.4 µM | 
 |  | COc1ccc(Nc2cc(-c3ccccc3OC)ncn2)cc1C(=O)NCc1ccncc1 [Example 28, 2-Methoxy-5-(6-(2-methoxyphenyl)pyrimidin-4-ylamino)-N-(pyridin-4-ylmethyl)benzamide] | < 1 µM | >0.5 µM | 

SMILES | IC50 ([1]; Table 1) | IC50 ([1]; Table 5) | IC50 [1] | TD50 [2] | TD50 [2, 3]
COc1ccc(Nc2cc(-c3ccccc3OC)ncn2)cc1C(=O)NCc1ccccc1 [Example 23, N-Benzyl-2-methoxy-5-(6-(2-methoxyphenyl)pyrimidin-4-ylamino)benzamide] | < 1 µM |  |  | >0.5 µM | 
COc1ccc(Nc2cc(-c3ccccc3OC)ncn2)cc1OCCN1CCOCC1 [Example 8, N-(4-Methoxy-3-(2-morpholinoethoxy)phenyl)-6-(2-methoxyphenyl)pyrimidin-4-amine] | < 1 µM |  |  |  | >1.5 µM
COc1ccc(F)cc1-c1cc(Nc2cc(F)c(OC)c(C(N)=O)c2)ncn1 [Example 140, 3-Fluoro-5-[6-(5-fluoro-2-methoxy-phenyl)-pyrimidin-4-ylamino]-2-methoxy-benzamide] | < 10 µM |  |  | >20 µM | 
